Patent publication US7122307B2, “High throughput biological heart rate monitor that is molecularly determined” (The Trustees of Columbia University in the City of New York, priority 2001, dated 2006)

Assays:
expressed HCN2 current = target: T1, expressed HCN2 current (Mus musculus, UniProt O88703); assay: Whole-cell voltage clamp: shift of the activation relation of expressed HCN2 current in ventricular myocytes; assay type: cell-based; settings: for shift of the voltage dependence of HCN2: saturating cAMP (10 μmol/L) in the pipette
T1 construct: expressed in transfected cells; host or cells: neonatal and adult rat ventricular myocytes in primary culture, infected with adenovirus AdHCN2 (or lipofectin-transfected with pCI-mHCN2)
T1 sequence (O88703 1-863): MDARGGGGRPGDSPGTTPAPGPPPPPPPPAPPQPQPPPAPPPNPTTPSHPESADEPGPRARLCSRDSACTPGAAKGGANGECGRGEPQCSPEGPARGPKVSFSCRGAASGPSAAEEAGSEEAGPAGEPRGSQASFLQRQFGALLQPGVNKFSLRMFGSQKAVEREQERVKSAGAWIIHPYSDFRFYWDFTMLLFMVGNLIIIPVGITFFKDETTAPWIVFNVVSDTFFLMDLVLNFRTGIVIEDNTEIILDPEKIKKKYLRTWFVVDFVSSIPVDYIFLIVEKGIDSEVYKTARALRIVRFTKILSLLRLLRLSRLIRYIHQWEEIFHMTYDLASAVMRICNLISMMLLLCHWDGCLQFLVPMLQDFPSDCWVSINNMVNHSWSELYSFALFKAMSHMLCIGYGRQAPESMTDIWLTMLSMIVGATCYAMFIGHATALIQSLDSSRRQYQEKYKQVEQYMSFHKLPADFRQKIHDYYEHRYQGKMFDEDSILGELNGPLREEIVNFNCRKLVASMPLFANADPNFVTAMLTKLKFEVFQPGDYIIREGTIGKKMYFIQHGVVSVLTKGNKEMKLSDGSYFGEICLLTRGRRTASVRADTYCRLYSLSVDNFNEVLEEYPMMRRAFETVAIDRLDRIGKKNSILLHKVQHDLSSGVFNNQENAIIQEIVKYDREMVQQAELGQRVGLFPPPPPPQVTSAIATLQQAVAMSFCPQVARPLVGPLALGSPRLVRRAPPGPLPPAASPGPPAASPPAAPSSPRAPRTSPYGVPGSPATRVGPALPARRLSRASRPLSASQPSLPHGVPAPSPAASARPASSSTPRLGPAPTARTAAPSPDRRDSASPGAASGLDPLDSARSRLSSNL
Method: The whole-cell voltage clamp technique was employed to record native If or expressed IHCN2 or IHCN4. Action potentials were recorded in current clamp mode, again using a whole cell patch electrode/Experiments were carried out on cells supervised at 35° C. Extracellular solution contained (mmol/L): NaCl, 140; NaOH, 2.3; MgCl2, 1; KCl, 5.4; CaCl2, 1.0; HEPES, 5; glucose, 10; pH 7.4. […] In some experiments CsCl (4 mmol/L) was used extracellularly to identify the pacemaker current as the Cs-sensitive current. […] Where indicated, 10 μmol/L cAMP was included in the pipette solution. A fast solution changing apparatus expedited the experimental protocols. The pipette resistance was typically 1–3 M. An Axopatch-200B amplifier and pClampS software (Axon Instruments) were used for acquisition and data analysis. […] For If and IHCN2 measurements, the hyperpolarizing test pulses were 3 or 6 sec long throughout the voltage range. […] In all pacemaker current protocols, each episode ended with a pulse to −5 mV for 0.5 sec to insure full deactivation.
The activation relation of the native or expressed current can be determined from the steady-state I-V relation.

[1] = tested on: HCN2 over-expressing cell culture; assay: Spontaneous rate (action potential recording) of AdHCN2 infected culture during drug superfusion; assay type: cell-based, rat; settings: for spontaneous rate during drug exposure: AdHCN2 infected culture, same culture during superfusion with drug, control records: 48 (isoproterenol), 54 (carbachol), 96 (ZD-7288) beats/min; for effect on heart rate of the culture (in words): HCN2 over-expressing cell culture
Text: Adult rats were anesthetized with ketamine-xylazine before cardiectomy, and neonatal rats decapitated, in accordance with the Institutional Animal Care and Use Committee protocols of Columbia University. For preparing cell cultures of newborn ventricles, a standard trypsin dissociation method was employed (21). The cells were preplated to reduce fibroblast proliferation, cultured initially in serum-containing medium (except when being transfected with plasmids as described below) and then switched to a serum free medium (SFM) after 24 hours. Action potential studies were conducted on 4 day old monolayer cultures plated directly onto fibronectin coated 9×22 mm glass coverslips. For voltage clamp experiments, 4–6 day old monolayer cultures were resuspended by brief (2–3 min) exposure to 0.25% trypsin, then the cells replated onto fibronectin-coated coverslips and studied within 2–8 hours.
For adult rat ventricular myocytes, AdHCN2 infection was carried out 2–3 hours after the isolated cells were plated onto coverslips. For neonatal cells, the infection was done on the monolayer culture 1–3 days after plating. In either case, the culture medium was removed from the dishes (35-mm) and the inoculum of 0.2–0.3 ml/dish was added containing AdHCN2. The value of m.o.i. (multiplicity of infection—the ratio of viral units to cells) was 15–100. The inoculum was dispersed over the cells every 20 min by gently “tilting” the dishes so that the cells were evenly exposed to the viral particles. The dishes were kept at 37° C. in a CO2 incubator during the adsorption period of two hours, then the inoculum was discarded and the dishes were washed and refilled with the appropriate culture medium. The dishes remained in the incubator for 24–48 hours before electrophysiological experiments were conducted. In some experiments, an adenoviral construct for GFP (AdGFP) was employed.
The whole-cell voltage clamp technique was employed to record native If or expressed IHCN2 or IHCN4. Action potentials were recorded in current clamp mode, again using a whole cell patch electrode/Experiments were carried out on cells supervised at 35° C. Extracellular solution contained (mmol/L): NaCl, 140; NaOH, 2.3; MgCl2, 1; KCl, 5.4; CaCl2, 1.0; HEPES, 5; glucose, 10; pH 7.4. To record from myocytes expressing native currents (If) myocytes expressing HCN2 (IHCN2) or HCN4 (IHCN4), [K^+]0 was increased to 10 mmol/L, and MnCl2 (2 mmol/L) and BaCl2 (4 mmol/L) added to the superfusate to eliminate calcium and inward rectifier (IK1) currents. In some experiments CsCl (4 mmol/L) was used extracellularly to identify the pacemaker current as the Cs-sensitive current. The patch pipette solution included (mmol/L): aspartic acid, 130; KOH, 146; NaCl, 10; CaCl2, 2; EGTA-KOH, 5; Mg-ATP, 2; HEPES-KOH, 10, pH 7.2. Where indicated, 10 μmol/L cAMP was included in the pipette solution. A fast solution changing apparatus expedited the experimental protocols. The pipette resistance was typically […]. An Axopatch-200B amplifier and pClampS software (Axon Instruments) were used for acquisition and data analysis. The pacemaker current (If, IHCN2 or IHCN4) was defined as the time-dependent component taken at the end of a hyperpolarizing step to voltages in the range of −35 to −145 mV, while the holding potential was −35 mV unless otherwise indicated. For If and IHCN2 measurements, the hyperpolarizing test pulses were 3 or 6 sec long throughout the voltage range. To accurately record steady-state currents for the more slowly activating IHCN4, the test voltages varied in length from 6 sec at −125 mV to as long as 60 sec at −55 mV. When recording tail currents, the test pulses were followed by an 8-sec voltage step to −125 mV. In all pacemaker current protocols, each episode ended with a pulse to −5 mV for 0.5 sec to insure full deactivation.
The normal cardiac pacemaker beats independently but is regulated by neurotransmitters released from sympathetic and parasympathetic neurons. […]

native pacemaker current = settings: sinus node; cited from earlier work

SMILES	shift of the voltage dependence of HCN2 (expressed HCN2 current; adult myocytes infected with AdHCN2) [mV]	shift of the voltage dependence of HCN2 (expressed HCN2 current; neonate myocytes infected with AdHCN2) [mV]	spontaneous rate during drug exposure [1] [beats/min]	effect on heart rate of the culture (in words) [1]	positive shift of the activation curve of expressed HCN2 current (expressed HCN2 current; threshold concentration of isoproterenol, neonatal ventricular myocyte, two-step voltage protocol, one cell)	threshold concentration on native pacemaker current (native pacemaker current)
Nc1ncnc2c1ncn2[C@@H]1O[C@@H]2COP(=O)(O)O[C@H]2[C@H]1O [cAMP, cyclic adenosine monophosphate]	14	17				
CC(C)NCC(O)c1ccc(O)c(O)c1 (stereo not shown) [isoproterenol]			63	increase in heart rate	approximately 5 mV	approximately 1 nM
C[N+](C)(C)CCOC(N)=O [carbachol]			45	decrease in heart rate		
CCN(c1ccccc1)c1cc(=NC)n(C)c(C)n1.Cl [ZD-7288]			78	slows the rate		
